This passage reports C0, AUC and Cmax results from patent publication US11865110B2, “Thrombin inhibitors, formulations, and uses thereof” (VERSEON INTERNATIONAL CORPORATION, priority 2018, dated 2024).

A short description of one data set: Rat pharmacokinetics. It counts as in vivo. To be noted: Sprague-Dawley, plasma, SD rats; for C0: C0 by extrapolation. Here is the method:
Rat pharmacokinetic data were generated as follows. Compounds were administered intravenously (IV) via tail vein or orally (PO) via gastric gavage to Sprague-Dawley rats fitted with surgically implanted jugular vein catheters (JVC) with nominal weights between 250 and 275 g. Nominal doses were 1 mg/kg and 5 mg/kg for IV and PO, respectively. The doses for IV administration were formulated by dissolving the test compound in a mixture (v/v/v) of 5% N,N-dimethylacetamide (DMA), 15% Kolliphor® (Solutol®) HS15, and 80% sterile water at a dose concentration of 0.25 mg/mL. The doses for PO administration were formulated either as Option A or Option B. Option A was formulated by dissolving the test compound in a mixture (v/v) of 90% Kolliphor® (Solutol®) HS15 and 10% pure ethanol at a dose concentration of 0.25 mg/mL. Option B was formulated by dissolving the test compound in a mixture (v/v) of 20% Labrasol® and 80% Phosphate buffer at pH 6.8.
Animals were housed in standard holding cages with food and water available ad libitum except for animals used for PO dosing which were fasted overnight prior to dosing. One to three rats were used for each experiment. Samples were collected manually via its JVC just before the dosing, as well as at the time points of 5 min, 15 min, 30 min, 60 min, 120 min, 4 h, 8 h, 12 h, and 24 h. Alternatively, samples were collected automatically by transferring the animal to a BASi Culex® automated blood-sampling system for the duration of the experiment. Plasma was obtained by centrifuge and stored frozen until analyzed by LC-MS/MS using an AB Sciex™ QTrap® 5500 coupled to a Shimadzu Nexera X2 fitted with a Luna® Omega 1.6 μm Polar C18 100 Å, 50×2.1 mm, acquired from Phenomenex®. Samples were compared against a standard curve of the test compound at concentrations ranging from 10,000 to 0.3 ng/mL.
Pharmacokinetic parameters were calculated from mean concentration values using a non-compartmental analysis as described below and as apparent to those of ordinary skill in the art. Concentration at time zero (C0) for the IV was established by the extrapolation of log linear regression using equal weighting on the first three sample time points. Area under the curve (AUC) values were calculated using linear trapezoidal integration.

Another data set is described as follows: Mouse pharmacokinetics. It is filed as in vivo. To be noted: plasma, male CD-1 mice; for C0: C0 by extrapolation. Here is the method: Mouse pharmacokinetic data were generated as follows. Compounds were administered intravenously (IV) as a single dose via tail vein or orally (PO) as a single dose via gastric gavage to male CD-1 mice with weights between 18 and 25 g. Nominal doses were 1 mg/kg and 5 mg/kg for IV and PO administration, respectively. The doses for IV were formulated by dissolving the test compound in a mixture (v/v/v) of 5% N,N-dimethylacetamide (DMA), 15% Kolliphor® (Solutol®) HS15, and 80% sterile water at a dose concentration of 0.25 mg/mL. Doses for PO were formulated by dissolving the test compound in a mixture (v/v) of 90% Kolliphor® (Solutol®) HS15 and 10% pure ethanol at a dose concentration of 0.25 mg/mL.
Animals were housed in standard holding cages with food and water available ad libitum except for those used for PO dosing, which were fasted overnight prior to dosing. Prior to dosing and at each time point following dosing (5 min (IV only), 15 min, 30 min, 60 min, 120 min, 4 h, 8 h, 12 h, and 24 h), two animals were sacrificed and blood samples were taken in triplicate via cardiac puncture. Plasma was obtained by centrifuge and stored frozen until analyzed by LC-MS/MS using an AB Sciex™ QTrap® 5500 coupled to a Shimadzu Nexera X2 fitted with a Luna® Omega 1.6 μm Polar C18 100 Å, 50×2.1 mm, acquired from Phenomenex®. Samples were compared against a standard curve of the test compound at concentrations ranging from 10,000 to 0.3 ng/mL.
Pharmacokinetic parameters are calculated from mean concentration values using a non-compartmental analysis as described below and as apparent to those of ordinary skill in the art. Concentration at time zero (C0) for the IV was established by the extrapolation of log-linear regression using equal weighting on the first three sample time points. Area under the curve (AUC) values were calculated using linear trapezoidal integration.

Setting [1] is: PO 5 mg/kg, Formulation B (20% Labrasol, 80% phosphate buffer pH 6.8).
Setting [2] is: PO 5 mg/kg, Formulation B (20% Labrasol, 80% phosphate buffer pH 6.8), read-out: PO AUC.
[3] abbreviates: IV single dose 1 mg/kg, read-out: IV AUC.
Where [4] appears, read: PO single dose 5 mg/kg, read-out: PO AUC.
The mark [5] stands for this setting: PO 5 mg/kg, Formulation A (90% Kolliphor HS15, 10% ethanol).
Where [6] appears, read: PO 5 mg/kg, Formulation A (90% Kolliphor HS15, 10% ethanol), read-out: PO AUC.

In the case of `CC(C)(C)C(=O)n1nc(-c2cccn(CCCC(=O)O)c2=O)cc1NCc1ccc(Cl)s1` [Compound 5, 4-[3-(5-{[(5-chlorothiophen-2-yl)methyl]amino}-1-(2,2-dimethylpropanoyl)-1H-pyrazol-3-yl)-2-oxo-1,2-dihydropyridin-1-yl]butanoic acid], in “Rat pharmacokinetics” (IV 1 mg/kg), the C0 was 5400 ng/mL. The AUC came out at 3300 ng·h/mL in the data set “Rat pharmacokinetics” (IV 1 mg/kg, read-out: IV AUC) and 2100 ng·h/mL in the data set “Rat pharmacokinetics” (setting [2]). In addition, the highest level in “Rat pharmacokinetics” (setting [1]) (Cmax) was 930 ng/mL.
For `CC(C)(C)C(=O)n1nc(-c2cccn(CCC(N)=O)c2=O)cc1NCc1ccc(Cl)s1` [Compound 8, 3-[3-(5-{[(5-chlorothiophen-2-yl)methyl]amino}-1-(2,2-dimethylpropanoyl)-1H-pyrazol-3-yl)-2-oxo-1,2-dihydropyridin-1-yl]propanamide], the C0 in “Mouse pharmacokinetics” (IV single dose 1 mg/kg) was 1700 ng/mL. Further, the AUC in “Mouse pharmacokinetics” (setting [3]) worked out at 530 ng·h/mL; in “Rat pharmacokinetics” (setting [2]), 120 ng·h/mL. The Cmax in the data set “Rat pharmacokinetics” (setting [1]) stood at 230 ng/mL.
Consider `CC(C)(C)C(=O)n1nc(-c2cccn(CCC(=O)O)c2=O)cc1NCc1ccc(Cl)s1` [Compound 1, 3-[3-(5-{[(5-chlorothiophen-2-yl)methyl]amino}-1-(2,2-dimethylpropanoyl)-1H-pyrazol-3-yl)-2-oxo-1,2-dihydropyridin-1-yl]propanoic acid], for which the C0 in “Mouse pharmacokinetics” (IV single dose 1 mg/kg) is 6800 ng/mL; in the data set “Rat pharmacokinetics” (IV 1 mg/kg), 6500 ng/mL. For the same molecule, the AUC came out at 8200 ng·h/mL in the data set “Mouse pharmacokinetics” (setting [3]); 31000 ng·h/mL in the data set “Mouse pharmacokinetics” (setting [4]); 3000 ng·h/mL in the data set “Rat pharmacokinetics” (IV 1 mg/kg, read-out: IV AUC); 2200 ng·h/mL in “Rat pharmacokinetics” (setting [6]). The figures for the Cmax in “Mouse pharmacokinetics” (PO single dose 5 mg/kg) and in the data set “Rat pharmacokinetics” (setting [5]) were 3600 ng/mL and 240 ng/mL, respectively.
`CC(C)(C)C(=O)n1nc(-c2cccn(CC(=O)O)c2=O)cc1NCc1ccc(Cl)s1` [Compound 4, 2-[3-(5-{[(5-chlorothiophen-2-yl)methyl]amino}-1-(2,2-dimethylpropanoyl)-1H-pyrazol-3-yl)-2-oxo-1,2-dihydropyridin-1-yl]acetic acid]: the C0 in the data set “Mouse pharmacokinetics” (IV single dose 1 mg/kg) is 9500 ng/mL; in “Rat pharmacokinetics” (IV 1 mg/kg) it was 12000 ng/mL. In addition, the AUC in the data set “Mouse pharmacokinetics” (setting [3]) was 6200 ng·h/mL; in “Mouse pharmacokinetics” (setting [4]), 15000 ng·h/mL; in “Rat pharmacokinetics” (IV 1 mg/kg, read-out: IV AUC) it was 2300 ng·h/mL; in “Rat pharmacokinetics” (setting [6]), 2300 ng·h/mL. Also, the Cmax came out at 1500 ng/mL in the data set “Mouse pharmacokinetics” (PO single dose 5 mg/kg) and 260 ng/mL in the data set “Rat pharmacokinetics” (setting [5]).
Regarding `CC(C)(N)Cn1cccc(-c2cc(NCc3ccc(Cl)s3)n(C(=O)c3ccoc3)n2)c1=O` [Compound 9, 1-(2-amino-2-methylpropyl)-3-(5-{[(5-chlorothiophen-2-yl)methyl]amino}-1-(furan-3-carbonyl)-1H-pyrazol-3-yl)-1,2-dihydropyridin-2-one], the C0 in “Rat pharmacokinetics” (IV 1 mg/kg) was 94 ng/mL. The AUC was 180 ng·h/mL in “Rat pharmacokinetics” (IV 1 mg/kg, read-out: IV AUC) and 73 ng·h/mL in the data set “Rat pharmacokinetics” (setting [2]). The same molecule had a Cmax in the data set “Rat pharmacokinetics” (setting [1]) of 5.8 ng/mL.
With `CCC(C)(C)C(=O)n1nc(-c2cccn(CCC(=O)O)c2=O)cc1NCc1ccc(Cl)s1` [Compound 11, 3-[3-(5-{[(5-chlorothiophen-2-yl)methyl]amino}-1-(2,2-dimethylbutanoyl)-1H-pyrazol-3-yl)-2-oxo-1,2-dihydropyridin-1-yl]propanoic acid], the C0 is 7400 ng/mL in “Mouse pharmacokinetics” (IV single dose 1 mg/kg) and 6100 ng/mL in “Rat pharmacokinetics” (IV 1 mg/kg). Further, the AUC in “Mouse pharmacokinetics” (setting [3]) amounted to 3900 ng·h/mL; in “Rat pharmacokinetics” (IV 1 mg/kg, read-out: IV AUC) it was 3200 ng·h/mL; in the data set “Rat pharmacokinetics” (setting [2]), 2100 ng·h/mL. For the same molecule, the Cmax in the data set “Rat pharmacokinetics” (setting [1]) amounted to 1200 ng/mL.
Regarding `O=C(O)CCn1cccc(-c2cc(NCc3ccc(Cl)s3)[nH]n2)c1=O` [Compound 2, 3-[3-(5-{[(5-chlorothiophen-2-yl)methyl]amino}-1H-pyrazol-3-yl)-2-oxo-1,2-dihydropyridin-1-yl]propanoic acid], the C0 in the data set “Mouse pharmacokinetics” (IV single dose 1 mg/kg) is 6300 ng/mL; in “Rat pharmacokinetics” (IV 1 mg/kg) it was 5600 ng/mL. Further, the AUC in the data set “Mouse pharmacokinetics” (setting [3]) worked out at 850 ng·h/mL; in the data set “Mouse pharmacokinetics” (setting [4]), 1300 ng·h/mL; in the data set “Rat pharmacokinetics” (IV 1 mg/kg, read-out: IV AUC) it was 760 ng·h/mL; in “Rat pharmacokinetics” (setting [2]), 140 ng·h/mL. Moreover, the Cmax in “Mouse pharmacokinetics” (PO single dose 5 mg/kg) was determined as 700 ng/mL; in “Rat pharmacokinetics” (setting [1]), 150 ng/mL.
In the case of `O=C(O)Cn1cccc(-c2cc(NCc3ccc(Cl)s3)[nH]n2)c1=O` [Compound 3, 2-[3-(5-{[(5-chlorothiophen-2-yl)methyl]amino}-1H-pyrazol-3-yl)-2-oxo-1,2-dihydropyridin-1-yl]acetic acid], the C0 in the data set “Mouse pharmacokinetics” (IV single dose 1 mg/kg) was 7200 ng/mL. Moreover, in the data set “Mouse pharmacokinetics” (setting [3]), the AUC turned out to be 2200 ng·h/mL.
With `O=C(O)CCn1cccc(-c2cc(NCc3ccc(Cl)s3)n(C(=O)c3ccoc3)n2)c1=O` [Compound 12, 3-[3-(5-{[(5-chlorothiophen-2-yl)methyl]amino}-1-(furan-3-carbonyl)-1H-pyrazol-3-yl)-2-oxo-1,2-dihydropyridin-1-yl]propanoic acid], the C0 in “Mouse pharmacokinetics” (IV single dose 1 mg/kg) was 4200 ng/mL; in the data set “Rat pharmacokinetics” (IV 1 mg/kg), 4600 ng/mL. For the same molecule, the AUC in “Mouse pharmacokinetics” (setting [3]) worked out at 1000 ng·h/mL; in “Rat pharmacokinetics” (IV 1 mg/kg, read-out: IV AUC), 930 ng·h/mL; in the data set “Rat pharmacokinetics” (setting [6]), 28 ng·h/mL. In the data set “Rat pharmacokinetics” (setting [5]), this molecule gave a Cmax of 19 ng/mL.

The term AUC denotes concentration integrated over time. By Cmax is commonly meant the highest concentration seen after dosing.
